# Reference: EP4789665A1, “TREATMENT OF HIS HYPORESPONDERS” (NewAmsterdam Pharma B.V., priority 2021, dated 2023)
# Several values for one entry are separate records, joined by “and”; a condition that tells them apart may be missing. Identical values can stand only once.
# Molecular target: T1, CETP (Homo sapiens, UniProt P11597)
# T1 construct: endogenous in cells; host or cells: trial patients (in vivo, circulating plasma CETP)
# T1 sequence (P11597 18-493): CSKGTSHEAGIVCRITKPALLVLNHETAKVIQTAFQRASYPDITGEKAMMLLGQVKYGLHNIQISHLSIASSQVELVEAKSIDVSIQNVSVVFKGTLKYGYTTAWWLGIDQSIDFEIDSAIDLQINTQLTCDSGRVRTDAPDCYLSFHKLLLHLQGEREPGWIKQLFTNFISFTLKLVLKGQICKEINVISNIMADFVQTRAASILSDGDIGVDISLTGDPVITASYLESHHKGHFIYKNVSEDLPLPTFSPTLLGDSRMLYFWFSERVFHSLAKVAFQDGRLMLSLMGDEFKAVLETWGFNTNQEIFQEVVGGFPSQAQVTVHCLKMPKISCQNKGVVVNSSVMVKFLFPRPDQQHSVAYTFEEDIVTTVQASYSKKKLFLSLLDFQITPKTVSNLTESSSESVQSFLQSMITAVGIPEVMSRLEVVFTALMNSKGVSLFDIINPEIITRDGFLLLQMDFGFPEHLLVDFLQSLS
# Test: Placebo-controlled, double-blind, randomized phase 2 study of obicetrapib as adjunct to high-intensity statin therapy: lipoprotein lipid and apolipoprotein responses
# Type: in vivo
# Settings: for LDL-C by PUC, % Change from Baseline LS mean (95% CI) / LDL-C reduced from baseline (Friedewald formula) / Apo B reduced by / Lp(a) reduced by / non-HDL-C reduced by: 8 weeks; for LDL-C by PUC, % Change from Baseline LS mean (95% CI) / Apo A1 Week 8 change, LS Mean ± SE / Apo B Week 8 change, LS Mean ± SE / HDL-C Week 8 change, LS Mean ± SE / LDL-C (Martin-Hopkins) Week 8 change, LS Mean ± SE / Lp(a) Week 8 change, LS Mean ± SE / Non-HDL-C Week 8 change, LS Mean ± SE / TG Week 8 change, LS Mean ± SE / VLDL-C Week 8 change, LS Mean ± SE / LDL-C (PUC) Week 8 change, LS Mean ± SE / LDL-C reduced from baseline (Friedewald formula) / Apo B reduced by / Lp(a) reduced by / non-HDL-C reduced by: adjunct to high-intensity statin; for LDL-C by PUC, % Change from Baseline LS mean (95% CI): Table 3; for Apo A1 Week 8 change, Median (min, max) / LDL-C (Martin-Hopkins) Week 8 change, Median (min, max) / Lp(a) Week 8 change, Median (min, max) / TG Week 8 change, Median (min, max) / VLDL-C Week 8 change, Median (min, max): adjunct to high-intensity statin therapy; for Apo A1 Week 8 change, LS Mean ± SE / Apo B Week 8 change, LS Mean ± SE / HDL-C Week 8 change, LS Mean ± SE / LDL-C (Martin-Hopkins) Week 8 change, LS Mean ± SE / Lp(a) Week 8 change, LS Mean ± SE / Non-HDL-C Week 8 change, LS Mean ± SE / TG Week 8 change, LS Mean ± SE / VLDL-C Week 8 change, LS Mean ± SE / LDL-C by Friedewald, % Change from Baseline LS mean: MMRM; for LDL-C (PUC) Week 8 change, LS Mean ± SE: analysis of covariance model, Table 9; for ApoB, % change from Baseline Median / HDL-C, % change from Baseline Median / LDL-C by Friedewald, % Change from Baseline (median) / LDL-C by PUC, % Change from Baseline (median) / Non-HDL-C, % Change from Baseline (median): week 8, adjunct to high-intensity statin therapy; for LDL-C by Friedewald, % Change from Baseline LS mean: week 8, adjunct to high-intensity statin; for LDL-C reduced from baseline (Friedewald formula): primary analysis; for LDL-C reduced from baseline (Friedewald formula) / Apo B reduced by / Lp(a) reduced by / non-HDL-C reduced by: stated as reduction
# Procedure: To evaluate the efficacy, safety, and tolerability of obicetrapib as an adjunct to high-intensity statin therapy, a placebo-controlled, double-blind, randomized, phase 2 study was carried out.
# The study consisted of three arms: 1) 5 mg obicetrapib as adjunctive therapy; 2) 10 mg obicetrapib as adjunctive therapy and 3) a placebo arm. The second objective was to evaluate other lipoprotein lipid and apolipoprotein responses, safety and tolerability profiles, and plasma concentrations of obicetrapib during treatment and for several weeks of follow-up. Lastly, this study aimed to determine if different quantitative measures of LDL-C levels produced differences in the treatment effects of CETP inhibition.
# This randomised, double-blind, placebo-controlled, parallel-group phase 2 trial was conducted in male and female patients (18-75 years), treated with high-intensity statin therapy, with LDL-C levels >70 mg/DL and TG levels < 400 mg/dL. Key exclusion criteria were patients with BMI > 40 kg/m; Significant cardiovascular disease; HbA1c > 10%; Uncontrolled hypertension; Active muscle disease; GFR < 60 ml/min; Hepatic dysfunction; Anemia; History of malignancy; Alcohol abuse; Treatment with investigational product; Treatment with PCSK9 inhibitor; Clinically significant condition; and/or prior exposure to a CETP inhibitor. Patients were recruited at 19 sites in the United States. The trial was approved by Independent Ethics Committees, and each patient provided written informed consent. The trial was conducted in accordance with the principles of the Declaration of Helsinki and Good Clinical Practice Guidelines and the protocol was registered on ClinicalTrials.gov (NCT04753606).
# The screening period for this study took up to 2-weeks. Afterwards patients were randomized to placebo, 5 mg obicetrapib or 10 mg obicetrapib for an 8-week treatment period. After the treatment period, patients continued for a 4-week safety follow-up and a 15-week PK follow-up.
# Patients were randomly assigned to receive one of the three treatments investigative treatments. All treatments were to be taken once daily with food for 8 weeks. Safety was assessed throughout the trial by monitoring adverse events and concomitant medication use, 12-lead electrocardiograms (ECGs), vital signs, laboratory safety assessments and physical examinations. Additional assessments included salivary cortisol, plasma aldosterone, high-sensitivity C-reactive protein (hsCRP) and endothelin 1.
# Efficacy assessments included fasted lipid profiles including total cholesterol (TC), HDL-C, LDL-C, triglycerides, apolipoprotein B (ApoB), and derived parameters.
# Total cholesterol and triglycerides were measured by homogenous enzymatic assay using a Modular analyser (cholesterol oxidase peroxidase-peroxidase aminophenazone phenol [CHOP-PAP]) method and a glycerol phosphate oxidase [GPO-PAP] method, respectively. Apolipoprotein B was measured by immunoturbidimetry using reagents from Rolf Greiner Biochemica (Germany) and N apoprotein standard serum from Siemens (Germany). LDL particle size was determined by gradient gel electrophoresis. HDL fraction was separated by a combined ultracentrifugation-precipitation method (β-quantification). HDL-2 and HDL-3 fractions were then separated by further ultracentrifugation. Total-cholesterol in HDL, HDL 2 and HLD-3 fractions, free cholesterol in HDL fraction, triglycerides in HDL fraction and phospholipids in plasma and HDL-fraction were measured using enzymatic methods and reagents from Diasys Diagnostics (Germany). The measurements were performed on an Olympus AU600 automatic analyzer and were calibrated using secondary standards from Roche Diagnostics (total-cholesterol, triglycerides) and Diasys Diagnostics (free cholesterol, phospholipids), respectively. Esterified cholesterol was calculated as the difference between total-cholesterol and free cholesterol.
# The primary outcome measure was LDL-C (percent change). […]
# [1] = 5 mg once daily for 8 weeks as adjunct to high-intensity statin therapy
# [2] = 5 mg once daily, listed as obicetrapib
# [3] = 10 mg once daily for 8 weeks as adjunct to high-intensity statin therapy
# [4] = 10 mg once daily, listed as obicetrapib
smiles,measurement,setting,value
"CCOC(=O)N1c2ccc(C(F)(F)F)cc2[C@@H](N(Cc2cc(C(F)(F)F)cc(C(F)(F)F)c2)c2ncc(OCCCC(=O)O)cn2)C[C@H]1CC [Obicetrapib, (2R,4S)-4-{[3,5-bis(trifluoromethyl)benzyl]-[5-(3-carboxypropoxy)pyrimidin-2-yl]amino}-2-ethyl-6-trifluoromethyl-3,4-dihydro-2H-quinoline-1-carboxylic acid ethyl ester]","ApoB, Change from Baseline Median mg/dL",[1],-22.0 mg/dL
same,"ApoB, EoT Median",[1],65.0 mg/dL
same,"HDL-C, Change from Baseline Median mg/dL",[1],60.0 mg/dL
same,"HDL-C, EoT Median",[1],107.0 mg/dL
same,"LDL-C by Friedewald, EoT Median",[1],51.0 mg/dL
same,"LDL-C by PUC, EoT Median",[1],53.0 mg/dL
same,"Non-HDL-C, EoT Median",[1],71 mg/dL
same,"LDL-C by PUC, % Change from Baseline LS mean (95% CI)",5 mg once daily,-37.98%
same,"Apo A1 Week 8 change, Median (min, max)",5 mg once daily,"44.6% and 44.6 (-10.0, 87.1) %"
same,"LDL-C (Martin-Hopkins) Week 8 change, Median (min, max)",5 mg once daily,"-42.5 (-80.8, 74.4) %"
same,"Lp(a) Week 8 change, Median (min, max)",5 mg once daily,"-33.8 (-84.6, 93.8) %"
same,"TG Week 8 change, Median (min, max)",5 mg once daily,"-11.0 (-53.3, 86.7) %"
same,"VLDL-C Week 8 change, Median (min, max)",5 mg once daily,"-11.5 (-53.5, 83.3) %"
same,"TG Week 8 change, Median (min, max)",[2],-11.0%
same,"VLDL-C Week 8 change, Median (min, max)",[2],-11.5%
same,"Apo A1 Week 8 change, LS Mean ± SE",5 mg once daily,41.1 ± 3.04%
same,"Apo B Week 8 change, LS Mean ± SE",5 mg once daily,-22.4 ± 2.58%
same,"HDL-C Week 8 change, LS Mean ± SE",5 mg once daily,122 ± 6.59%
same,"LDL-C (Martin-Hopkins) Week 8 change, LS Mean ± SE",5 mg once daily,-39.6 ± 3.68%
same,"Lp(a) Week 8 change, LS Mean ± SE",5 mg once daily,-30.9 ± 4.43%
same,"Non-HDL-C Week 8 change, LS Mean ± SE",5 mg once daily,-34.4 ± 3.18%
same,"TG Week 8 change, LS Mean ± SE",5 mg once daily,-6.63 ± 5.32%
same,"VLDL-C Week 8 change, LS Mean ± SE",5 mg once daily,-6.02 ± 5.24%
same,"LDL-C (PUC) Week 8 change, LS Mean ± SE",5 mg once daily,-35.7 ± 3.31%
same,"ApoB, % change from Baseline Median",5 mg once daily,"-24.40% and -24.4 (-58.5, 47.4) %"
same,"HDL-C, % change from Baseline Median",5 mg once daily,"135% and 135.4% and 135 (-26.4, 213) %"
same,"LDL-C by Friedewald, % Change from Baseline (median)",5 mg once daily,"-42.90% and -42.9 (-81.9, 72.4) %"
same,"LDL-C by PUC, % Change from Baseline (median)",5 mg once daily,"-41.5% and -41.45% and -41.5 (-71.2, 62.3) %"
same,"Non-HDL-C, % Change from Baseline (median)",5 mg once daily,"-38.9% and -38.9 (-65.6, 66.3) %"
same,"LDL-C by PUC, % Change from Baseline (median)",[2],-41.5%
same,"LDL-C by Friedewald, % Change from Baseline LS mean",5 mg once daily,-37.94% and -38.0 ± 3.49%
same,LDL-C reduced from baseline (Friedewald formula),5 mg,42.9%
same,Apo B reduced by,5 mg,24.4%
same,Lp(a) reduced by,5 mg,33.8%
same,non-HDL-C reduced by,5 mg,38.9%
same,"ApoB, Change from Baseline Median mg/dL",[3],-24.5 mg/dL
same,"ApoB, EoT Median",[3],58.5 mg/dL
same,"HDL-C, Change from Baseline Median mg/dL",[3],72.0 mg/dL
same,"HDL-C, EoT Median",[3],117.5 mg/dL
same,"LDL-C by Friedewald, EoT Median",[3],52.0 mg/dL
same,"LDL-C by PUC, EoT Median",[3],49.5 mg/dL
same,"Non-HDL-C, EoT Median",[3],69 mg/dL
same,"LDL-C by PUC, % Change from Baseline LS mean (95% CI)",10 mg once daily,-44.15%
same,"Apo A1 Week 8 change, Median (min, max)",10 mg once daily,"47.8% and 47.8 (13.5, 106) %"
same,"LDL-C (Martin-Hopkins) Week 8 change, Median (min, max)",10 mg once daily,"-49.2 (-77.0, 28.1) %"
same,"Lp(a) Week 8 change, Median (min, max)",10 mg once daily,"-56.5 (-85.7, 18.3) %"
same,"TG Week 8 change, Median (min, max)",10 mg once daily,"-7.85 (-63.7, 129) %"
same,"VLDL-C Week 8 change, Median (min, max)",10 mg once daily,"-7.90 (-44.4, 125) %"
same,"LDL-C (Martin-Hopkins) Week 8 change, Median (min, max)",[4],-49.2%
same,"Apo A1 Week 8 change, LS Mean ± SE",10 mg once daily,52.3 ± 3.04%
same,"Apo B Week 8 change, LS Mean ± SE",10 mg once daily,-28.1 ± 2.56%
same,"HDL-C Week 8 change, LS Mean ± SE",10 mg once daily,157 ± 6.54%
same,"LDL-C (Martin-Hopkins) Week 8 change, LS Mean ± SE",10 mg once daily,-46.9 ± 3.65%
same,"Lp(a) Week 8 change, LS Mean ± SE",10 mg once daily,-42.0 ± 4.33%
same,"Non-HDL-C Week 8 change, LS Mean ± SE",10 mg once daily,-39.9 ± 3.15%
same,"TG Week 8 change, LS Mean ± SE",10 mg once daily,2.45 ± 5.27%
same,"VLDL-C Week 8 change, LS Mean ± SE",10 mg once daily,3.08 ± 5.19%
same,"LDL-C (PUC) Week 8 change, LS Mean ± SE",10 mg once daily,-46.8 ± 3.23%
same,"ApoB, % change from Baseline Median",10 mg once daily,"-29.75% and -29.8 (-58.4, 13.0) %"
same,"HDL-C, % change from Baseline Median",10 mg once daily,"165% and 165 (55.1, 286) %"
same,"LDL-C by Friedewald, % Change from Baseline (median)",10 mg once daily,"-45.65% and -45.7 (-78.0, 26.2) %"
same,"LDL-C by PUC, % Change from Baseline (median)",10 mg once daily,"-50.8% and -50.75% and -50.8 (-76.9, 15.6) %"
same,"Non-HDL-C, % Change from Baseline (median)",10 mg once daily,"-44.4% and -44.4 (-70.2, 22.5) %"
same,"LDL-C by PUC, % Change from Baseline (median)",[4],-50.8%
same,"LDL-C by Friedewald, % Change from Baseline LS mean",10 mg once daily,-44.15% and -44.2 ± 3.46%
same,LDL-C reduced from baseline (Friedewald formula),10 mg,45.7%
same,Apo B reduced by,10 mg,29.8%
same,Lp(a) reduced by,10 mg,56.5%
same,non-HDL-C reduced by,10 mg,44.4%
same,median Apo B reductions from baseline,"10 mg, post-hoc analysis, individuals with baseline Apo B >100 mg/dL",39%
